Data set [1] has as its target T1, ACK1 (Homo sapiens, UniProt Q07912). As to the kind of experiment: Reaction Biology 33P Hotspot assay. Format: biochemical.
Data set [2] has as its target T1, ACK1. Kind of data set: ACK1 IC50 (Table 1). Format: biochemical.
Data set [3] has as its target T1, ACK1. As to the kind of experiment: ACK1 ELISA. Type of data set: biochemical. The following applies: read-out: ACK1 ELISA % Inhibition at 100 nM. On the technique in general: In an ELISA, binding on a coated surface is turned into a signal by an enzyme label.
For data set [4], the system named is AKT Tyr176 phosphorylation. The following applies: pancreatic cancer cells; cited from earlier work.
Data set [5] relates to AR Tyr267 phosphorylation. Conditions: cited from earlier work.
In data set [6] the test system is castration and radioresistant prostate xenograft tumor. Conditions: cited from earlier work.
The subject of data set [7] is ACK1 autophosphorylation (Tyr284). Conditions: HEK293 cells, 2 μM; cited from earlier work.
The test system of a further data set is A549 lung cancer cell. The following applies: 10 μM; cited from earlier work.
The subject of data set [8] is ACK1 in NCI-H1703 human non-small cell lung cancer cells. The following applies: read-out: IC50 for ACK1 inhibition in NCI-H1703 cells (ELISA); cited from earlier work.
For data set [9] the following is noted: mouse models; cited from earlier work.

The structures appear in SMILES notation.

A word on the IC50: it is the concentration needed to halve the response being measured. For orientation: inhibition means the relative decrease from the control value, in per cent.

T1 sequence (Q07912 whole entry): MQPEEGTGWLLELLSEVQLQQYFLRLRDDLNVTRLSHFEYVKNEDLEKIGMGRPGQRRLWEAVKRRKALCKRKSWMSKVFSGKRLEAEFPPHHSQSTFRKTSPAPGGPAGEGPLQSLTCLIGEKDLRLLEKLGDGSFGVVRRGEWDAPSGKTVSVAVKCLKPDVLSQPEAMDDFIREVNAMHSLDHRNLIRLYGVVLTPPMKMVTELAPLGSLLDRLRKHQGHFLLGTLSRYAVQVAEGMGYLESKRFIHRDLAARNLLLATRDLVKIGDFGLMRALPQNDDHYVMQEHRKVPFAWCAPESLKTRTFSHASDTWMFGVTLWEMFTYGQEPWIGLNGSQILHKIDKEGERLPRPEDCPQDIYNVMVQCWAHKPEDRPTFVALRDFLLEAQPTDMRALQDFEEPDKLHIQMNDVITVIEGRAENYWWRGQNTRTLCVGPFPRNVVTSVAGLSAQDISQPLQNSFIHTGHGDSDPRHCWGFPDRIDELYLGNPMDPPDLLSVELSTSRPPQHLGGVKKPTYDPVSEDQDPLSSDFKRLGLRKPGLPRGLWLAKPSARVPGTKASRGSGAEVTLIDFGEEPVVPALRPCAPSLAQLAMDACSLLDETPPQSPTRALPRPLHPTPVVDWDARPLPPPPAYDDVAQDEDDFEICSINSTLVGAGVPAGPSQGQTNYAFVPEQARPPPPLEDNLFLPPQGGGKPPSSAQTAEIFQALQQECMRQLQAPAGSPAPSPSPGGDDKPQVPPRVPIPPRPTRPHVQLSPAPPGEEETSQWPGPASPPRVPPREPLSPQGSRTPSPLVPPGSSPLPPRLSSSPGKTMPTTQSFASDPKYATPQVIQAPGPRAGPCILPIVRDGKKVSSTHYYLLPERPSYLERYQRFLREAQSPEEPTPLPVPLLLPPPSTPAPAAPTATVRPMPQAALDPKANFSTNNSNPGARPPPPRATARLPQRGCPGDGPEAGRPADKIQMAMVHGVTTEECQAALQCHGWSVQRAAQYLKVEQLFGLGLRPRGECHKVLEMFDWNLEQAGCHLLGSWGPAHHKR

`CN1CCN(c2ccc(Nc3ncc(Cl)c(NC[C@H]4CCCO4)n3)cc2C#N)CC1` gave an IC50 at ACK1 [1] of 112 nM.
`CN1CCN(c2ccc(Nc3ncc(Cl)c(NC[C@H]4CCCO4)n3)cc2CO)CC1`: half-maximal inhibition against ACK1 [1] (IC50) was put at 51 nM.
Turning to `CC(=O)N1CCN(c2ccc(Nc3ncc(Cl)c(NCC4CCOCC4)n3)cc2OC(C)C)CC1` [1-(4-(4-((5-chloro-4-(((tetrahydro-2H-pyran-4-yl)methyl)amino)pyrimidin-2-yl)amino)-2-isopropoxyphenyl)piperazin-1-yl)ethan-1-one], the midpoint of inhibition at ACK1 [1], the IC50, lay at 9.87 nM.
On ACK1 [1], `COc1cc(N2CCN(C(C)=O)CC2)ccc1Nc1ncc(Cl)c(NCC2CCOCC2)n1` [1-(4-(4-((5-chloro-4-(((tetrahydro-2H-pyran-4-yl)methyl)amino)pyrimidin-2-yl)amino)-3-methoxyphenyl)piperazin-1-yl)ethan-1-one] returned an IC50 of 17.3 nM.
On the same count and under the same terms, under `CC(=O)N1CCN(c2ccc(Nc3ncc(Cl)c(NCC4CCOCC4)n3)cc2)CC1` [1-(4-(4-((5-chloro-4-(((tetrahydro-2H-pyran-4-yl)methyl)amino)pyrimidin-2-yl)amino)phenyl)piperazin-1-yl)ethan-1-one] stands 26.6 nM.
`COc1cc(C2CCN(C)CC2)ccc1Nc1ncc(Cl)c(NCC2CCOCC2)n1` [5-chloro-N^2-(2-methoxy-4-(1-methylpiperidin-4-yl)phenyl)-N^4-((tetrahydro-2H-pyran-4-yl)methyl)pyrimidine-2,4-diamine] had a concentration for half-maximal inhibition (IC50) at ACK1 [2] of 20.2 nM.
In turn, `COc1ccc(CNc2nc(Nc3ccc(N4CCN(C)CC4)cc3OC)ncc2Cl)cc1` [5-chloro-N^2-(2-methoxy-4-(4-methylpiperazin-1-yl)phenyl)-N^4-(4-methoxybenzyl)pyrimidine-2,4-diamine] registered a half-inhibitory concentration (IC50) against ACK1 [2] of 82.9 nM. On ACK1 [3], the inhibition at 0.1 µM came to 70.3%.
`COc1cc(N2CCN(C)CC2)ccc1Nc1ncc(Cl)c(NCc2ccc(C)cc2)n1` [5-chloro-N^2-(2-methoxy-4-(4-methylpiperazin-1-yl)phenyl)-N^4-(4-methylbenzyl)pyrimidine-2,4-diamine] gave a 50% inhibitory concentration (IC50) against ACK1 [2] of 50.8 nM. Further, the inhibition at 0.1 µM on ACK1 [3] was 77.6%.
Take `COc1cc(N2CCN(C)CC2)ccc1Nc1ncc(Cl)c(NCC2CCOCC2)n1` [5-chloro-N^2-(2-methoxy-4-(4-methylpiperazin-1-yl)phenyl)-N^4-((tetrahydro-2H-pyran-4-yl)methyl)pyrimidine-2,4-diamine]: the concentration for half-maximal inhibition (IC50) on ACK1 [2] was determined as 14.9 nM.
For `COc1c(Nc2ncc(Cl)c(NCC3CCOCC3)n2)ccc(N2CCN(C)CC2)c1F` [5-chloro-N^2-(3-fluoro-2-methoxy-4-(4-methylpiperazin-1-yl)phenyl)-N^4-((tetrahydro-2H-pyran-4-yl)methyl)pyrimidine-2,4-diamine], on ACK1 [1], the IC50 turned out to be 87.9 nM.
Compound `CN1CCC(c2ccc(Nc3ncc(Cl)c(NCC4CCOCC4)n3)cc2F)CC1` [5-chloro-N^2-(3-fluoro-4-(1-methylpiperidin-4-yl)phenyl)-N^4-((tetrahydro-2H-pyran-4-yl)methyl)pyrimidine-2,4-diamine] returned an IC50 on ACK1 [2] (unit inferred) of 35.9 nM.
Take `CN1CCN(c2ccc(Nc3ncc(Cl)c(NCC4CCOCC4)n3)cc2F)CC1` [5-chloro-N^2-(3-fluoro-4-(4-methylpiperazin-1-yl)phenyl)-N^4-((tetrahydro-2H-pyran-4-yl)methyl)pyrimidine-2,4-diamine]: on ACK1 [2], the IC50 was 19.8 nM.
Still for that read-out and setting: the figure for `CN1CCC(c2ccc(Nc3ncc(Cl)c(NCC4CCOCC4)n3)cc2)CC1` [5-chloro-N^2-(4-(1-methylpiperidin-4-yl)phenyl)-N^4-((tetrahydro-2H-pyran-4-yl)methyl)pyrimidine-2,4-diamine] is 39.5 nM; for `CN1CCN(c2ccc(Nc3ncc(Cl)c(NCC4CCOCC4)n3)cc2)CC1` [5-chloro-N^2-(4-(4-methylpiperazin-1-yl)phenyl)-N^4-((tetrahydro-2H-pyran-4-yl)methyl)pyrimidine-2,4-diamine] it is 20.5 nM.
`CN1CCN(Cc2ccc(Nc3ncc(Cl)c(NCC4CCCO4)n3)cc2)CC1` (centres unmarked) [5-chloro-N^2-(4-((4-methylpiperazin-1-yl)methyl)phenyl)-N^4-((tetrahydrofuran-2-yl)methyl)pyrimidine-2,4-diamine] gave an IC50 against ACK1 [1] of 145 nM.
On the same count and under the same terms, the figure for `COc1cc(N2CCN(C)CC2)c(F)cc1Nc1ncc(Cl)c(NCC2CCOCC2)n1` [5-chloro-N^2-(5-fluoro-2-methoxy-4-(4-methylpiperazin-1-yl)phenyl)-N4-((tetrahydro-2H-pyran-4-yl)methyl)pyrimidine-2,4-diamine] is 11.9 nM.
In turn, `COc1cc(N2CCN(C)CC2)ccc1Nc1ncc(Cl)c(NCc2ccc(Cl)cc2Cl)n1` [5-chloro-N^4-(2,4-dichlorobenzyl)-N^2-(2-methoxy-4-(4-methylpiperazin-1-yl)phenyl)pyrimidine-2,4-diamine] came in with an IC50 at ACK1 [2] of 70.1 nM. The inhibition at 0.1 µM at ACK1 [3] came out at 78.1%.
`COc1cc(N2CCN(C)CC2)ccc1Nc1ncc(Cl)c(NCc2ccc(Cl)cc2)n1` [5-chloro-N^4-(4-chlorobenzyl)-N^2-(2-methoxy-4-(4-methylpiperazin-1-yl)phenyl)pyrimidine-2,4-diamine]: the inhibition at 0.1 µM at ACK1 [3] is 67.9%.
At ACK1 [2], `COc1cc(N2CCN(C)CC2)ccc1Nc1ncc(Cl)c(NCc2ccc(F)cc2)n1` [5-chloro-N^4-(4-fluorobenzyl)-N^2-(2-methoxy-4-(4-methylpiperazin-1-yl)phenyl)pyrimidine-2,4-diamine] gave an IC50 of 43.9 nM. The inhibition at 0.1 µM at ACK1 [3] is 91.2%.
On ACK1 [2], `CN1CCN(c2ccc(Nc3ncc(Cl)c(NCc4ccc(F)cc4)n3)cc2)CC1` [5-chloro-N^4-(4-fluorobenzyl)-N^2-(4-(4-methylpiperazin-1-yl)phenyl)pyrimidine-2,4-diamine] had an IC50 of 35.6 nM. The inhibition at 0.1 µM on ACK1 [3] was 94%.
`CN1CCC(c2cc(F)c(Nc3ncc(Cl)c(NC[C@H]4CCCO4)n3)cc2F)CC1` [(R)-5-chloro-N^2-(2,5-difluoro-4-(1-methylpiperidin-4-yl)phenyl)-N^4-((tetrahydrofuran-2-yl)methyl)pyrimidine-2,4-diamine] came in with an IC50 against ACK1 [2] of 44.7 nM.
The same measure, in the same setting: under `Cc1cc(Nc2ncc(Cl)c(NC[C@H]3CCCO3)n2)c(F)cc1C1CCN(C)CC1` [(R)-5-chloro-N^2-(2-fluoro-5-methyl-4-(1-methylpiperidin-4-yl)phenyl)-N^4-((tetrahydrofuran-2-yl)methyl)pyrimidine-2,4-diamine] stands 85.3 nM.
At ACK1 [1], `CN1CCN(c2cccc(Nc3ncc(Cl)c(NC[C@H]4CCCO4)n3)c2)CC1` [(R)-5-chloro-N^2-(3-(4-methylpiperazin-1-yl)phenyl)-N^4-((tetrahydrofuran-2-yl)methyl)pyrimidine-2,4-diamine] registered an IC50 of 88 nM.
For `COCCOCc1cc(Nc2ncc(Cl)c(NC[C@H]3CCCO3)n2)ccc1N1CCN(C)CC1` [(R)-5-chloro-N^2-(3-((2-methoxyethoxy)methyl)-4-(4-methylpiperazin-1-yl)phenyl)-N^4-((tetrahydrofuran-2-yl)methyl)pyrimidine-2,4-diamine], the IC50 on ACK1 [1] amounted to 198 nM.
Consider `CC(C)OCc1cc(Nc2ncc(Cl)c(NC[C@H]3CCCO3)n2)ccc1N1CCN(C)CC1` [(R)-5-chloro-N^2-(3-(isopropoxymethyl)-4-(4-methylpiperazin-1-yl)phenyl)-N^4-((tetrahydrofuran-2-yl)methyl)pyrimidine-2,4-diamine], for which half-maximal inhibition at ACK1 [1] (IC50) was put at 167 nM.
Same read-out and setting: under `CC(C)Oc1cc(Nc2ncc(Cl)c(NC[C@H]3CCCO3)n2)ccc1C1CCN(C)CC1` [(R)-5-chloro-N^2-(3-isopropoxy-4-(1-methylpiperidin-4-yl)phenyl)-N^4-((tetrahydrofuran-2-yl)methyl)pyrimidine-2,4-diamine] stands 62 nM.
Still for that read-out and setting: under `COc1cc(Nc2ncc(Cl)c(NC[C@H]3CCCO3)n2)ccc1C1CCN(C)CC1` [(R)-5-chloro-N^2-(3-methoxy-4-(1-methylpiperidin-4-yl)phenyl)-N^4-((tetrahydrofuran-2-yl)methyl)pyrimidine-2,4-diamine] stands 87.2 nM.
`c1ccc(-c2oc3ncnc(NC[C@@H]4CCCO4)c3c2-c2ccccc2)cc1` [Compound 1b]: the “ACK1 dependent AKT Tyr176 phosphorylation” value in data set [4] is “inhibits”. The “AR Tyr267 phosphorylation” value in data set [5] is listed as “inhibits”. Also, in [6], the xenograft tumor growth result is listed as “inhibits”.
On to `COc1cc(N2CCN(C)CC2)ccc1Nc1ncc2c(n1)N(C)c1ccccc1C(=O)N2` [Compound 3], for which the “EGF induced ACK1 autophosphorylation (Tyr284)” value in data set [7] is given as “abolishes”. In addition, the “A549 lung cancer cell growth” value in the data set with A549 lung cancer cell is reported as “inhibits”.
For the compound `COc1cc(Oc2ccccc2)ccc1-c1nc(C2CC(C)(O)C2)n2ccnc(N)c12` (centres unmarked) [Compound 4], the 50% inhibitory concentration (IC50) in data set [8] is 35 nM. For the same compound, the oral bioavailability result in [9] was “orally bioavailable”.
Regarding `COc1cc(N2CCN(C)CC2)ccc1Nc1ncc(Cl)c(NCc2ccccc2)n1` [N^4-benzyl-5-chloro-N^2-(2-methoxy-4-(4-methylpiperazin-1-yl)phenyl)pyrimidine-2,4-diamine], on ACK1 [2], the concentration for half-maximal inhibition (IC50) turned out to be 48.2 nM. Besides, the inhibition at 0.1 µM at ACK1 [3] came to 98.2%.
